Patent US20040086942A1, “Ige receptor antagonists” (priority 2003, published 2004)
Where a SMILES comes first, the peptide text is derived from it. Bridges are numbered along the chain shown (N, C = ends). [ ]: non-standard residue; d: D form. NMeA = CN[C@@H](C)C(=O)O

System: not listed separately
Assay: 2D NMR structural score versus reference peptide
Assay type: physicochemical
Set-up: key to Struct. Score: +++ indicates the peptide is structured similarly to IGE063 (SEQ ID NO:49); + indicates the peptide is structured similarly to IGE063 (SEQ ID NO:49), but is less stable; −/+ indicates the peptide has some elements of stable structure, but the conformation differs from the reference structure (e.g., a different turn type is evident); − indicates the peptide is predominantly unstructured in aqueous solution; key to Structure Score: +++, peptide structurally similar to reference; +, structurally similar to reference but significantly less stable; +/−, peptide has some elements of stable structure, but the conformation differs from the reference structure; −, peptide is predominantly unstructured; *peptide IGE037 (SEQ ID NO:128) was initially unstructured (monomeric form), but became structured after spontaneous dimer formation
Details: reference IGE063
Description: Peptides were evaluated by 2D NMR spectroscopy to assess the effect of substitutions on the three-dimensional structure of the peptide analog. All peptides with a structural score indicated in Table 5 were analyzed by 2D NMR spectroscopy; backbone ^1H resonances were assigned and ^3JHN-Hα coupling constants were measured and compared to the reference peptide (IGE063, SEQ ID NO:49; see Example 5). Peptides are defined to be of similar structure to the reference peptide provided chemical shifts, coupling constants, and NOEs are consistent with that structure.
A structural score was assigned to peptides analyzed by 2D NMR spectroscopy. For each of these peptides, backbone ^1H resonances have been assigned, and the ^3JHN-Ha coupling constants have been measured and compared to the reference peptide (i.e., IGE134 (SEQ ID NOS:155, 171)). Peptides are defined to be of similar structure to the reference peptide provided. chemical shifts, coupling constants, and NOEs are consistent with that structure.

Row | Struct. Score | Compound
1 | +++ | CSCC[C@H](NC(=O)[C@@H]1CSSC[C@H](NC(=O)[C@H](CCCNC(=N)N)NC(=O)[C@@H]2CCCN2C(=O)[C@H](CC(C)C)NC(=O)[C@H](CC(N)=O)NC(C)=O)C(=O)N[C@@H]([C@@H](C)O)C(=O)N[C@@H](CCC(=O)O)C(=O)NCC(=O)N2CCC[C@H]2C(=O)N[C@@H](Cc2c[nH]c3ccccc23)C(=O)NCC(=O)N[C@@H](Cc2c[nH]c3ccccc23)C(=O)N[C@@H](C(C)C)C(=O)N1)C(=O)O [IGE063, Ac-NLPRCTEGPWGWVCM] (Ac-NLPRCTEGPWGWVCM-OH; disulfide 5-14)
2 | +++ | CSCC[C@H](NC(=O)[C@@H]1CSSC[C@H](NC(=O)[C@H](CCCNC(=N)N)NC(=O)[C@@H]2CCCN2C(=O)[C@H](CC(C)C)NC(=O)[C@H](CC(N)=O)NC(C)=O)C(=O)N[C@@H]([C@@H](C)O)C(=O)N[C@@H](CCC(=O)O)C(=O)NCC(=O)N2CCC[C@H]2C(=O)N[C@@H](CCCCN)C(=O)NCC(=O)N[C@@H](Cc2c[nH]c3ccccc23)C(=O)N[C@@H](C(C)C)C(=O)N1)C(=O)N[C@@H](C)C(=O)N[C@@H](CC(=O)O)C(=O)N[C@@H](CC(=O)O)C(N)=O [IGE032, Ac-NLPRCTEGPKGWVCMADD-nh2] (Ac-NLPRCTEGPKGWVCMADD-NH2; disulfide 5-14)
3 | +++ | CC(C)C[C@H](NC(=O)[C@@H](N)CC(N)=O)C(=O)N1CCC[C@H]1C(=O)N[C@@H](CCCNC(=N)N)C(=O)N[C@H]1CSSC[C@@H](C(N)=O)NC(=O)[C@H](C(C)C)NC(=O)[C@H](Cc2c[nH]c3ccccc23)NC(=O)CNC(=O)[C@H](Cc2c[nH]c3ccccc23)NC(=O)[C@@H]2CCCN2C(=O)CNC(=O)[C@H](CCC(=O)O)NC(=O)[C@H]([C@@H](C)O)NC1=O [IGE091, NLPRCTEGPWGWVC-nh2] (H-NLPRCTEGPWGWVC-NH2; disulfide 5-14)
4 | +++ | Ac-NLPRCTEG(hyP)WGWVCM [IGE101]
5 | +++ | CSCC[C@H](NC(=O)[C@@H]1CSSC[C@H](NC(=O)[C@H](CCCNC(=N)N)NC(=O)[C@@H]2CCCN2C(=O)[C@H](CC(C)C)NC(=O)[C@H](CC(N)=O)NC(C)=O)C(=O)N[C@@H]([C@@H](C)O)C(=O)N[C@@H](CCC(=O)O)C(=O)NCC(=O)N2CCC[C@H]2C(=O)N[C@@H](Cc2c[nH]c3ccccc23)C(=O)N[C@H](C)C(=O)N[C@@H](Cc2c[nH]c3ccccc23)C(=O)N[C@@H](C(C)C)C(=O)N1)C(=O)O [IGE105, Ac-NLPRCTEGPWaWVCM] (Ac-NLPRCTEGPW[dA]WVCM-OH; disulfide 5-14; C-terminus assumed)
6 | +++ | CSCC[C@H](NC(=O)[C@@H]1CSSC[C@H](NC(=O)[C@H](CCCNC(=N)N)NC(=O)[C@@H]2CCCN2C(=O)[C@H](CC(C)C)NC(=O)[C@@H](N)CC(N)=O)C(=O)N[C@@H]([C@@H](C)O)C(=O)N[C@@H](CCC(=O)O)C(=O)NCC(=O)N2CCC[C@H]2C(=O)N[C@@H](C)C(=O)NCC(=O)N[C@@H](Cc2c[nH]c3ccccc23)C(=O)N[C@@H](C(C)C)C(=O)N1)C(=O)O [IGE072, NLPRCTEGPAGWVCM] (H-NLPRCTEGPAGWVCM-OH; disulfide 5-14; N-terminus and C-terminus assumed)

The remaining lines, values behind:

Row | Compound | Struct. Score
7 | CSCC[C@H](NC(=O)[C@@H]1CSSC[C@H](NC(=O)[C@H](CCCNC(=N)N)NC(=O)[C@@H]2CCCN2C(=O)[C@H](CC(C)C)NC(=O)[C@H](CC(N)=O)NC(C)=O)C(=O)N[C@@H]([C@@H](C)O)C(=O)N[C@@H](CCC(=O)O)C(=O)NCC(=O)N(C)[C@@H](C)C(=O)N[C@@H](Cc2c[nH]c3ccccc23)C(=O)NCC(=O)N[C@@H](Cc2c[nH]c3ccccc23)C(=O)N[C@@H](C(C)C)C(=O)N1)C(=O)O [IGE096, Ac-NLPRCTEG(N-Me-A)WGWVCM] (Ac-NLPRCTEG[NMeA]WGWVCM-OH; disulfide 5-14; C-terminus assumed) | +++
8 | CSCC[C@H](NC(=O)[C@@H]1CSSC[C@H](NC(=O)[C@H](CCCNC(=N)N)NC(=O)[C@@H]2CCCN2C(=O)[C@H](CC(C)C)NC(=O)[C@@H](N)CC(N)=O)C(=O)N[C@@H]([C@@H](C)O)C(=O)N[C@@H](CCC(=O)O)C(=O)NCC(=O)N2CCC[C@@H]2C(=O)N[C@@H](Cc2c[nH]c3ccccc23)C(=O)NCC(=O)N[C@@H](Cc2c[nH]c3ccccc23)C(=O)N[C@@H](C(C)C)C(=O)N1)C(=O)O [IGE071, NLPRCTEGpWGWVCM] (H-NLPRCTEG[dP]WGWVCM-OH; disulfide 5-14; N-terminus and C-terminus assumed) | −/+
9 | Ac-NLPRCTEGPWGWVCM [IGE108] | +

Same assay, conditions: reference IGE134

Row | Compound | Structure Score
10 | CC(C)C[C@@H]1NC(=O)[C@H](C)NC(=O)[C@H](Cc2c[nH]cn2)NC(=O)CNC(=O)CNC(=O)[C@H](C(C)C)NC(=O)[C@H](Cc2ccc(O)cc2)NC(=O)[C@@H]2CSSC[C@H](NC1=O)C(=O)N1CCC[C@H]1C(=O)N[C@@H](CC(=O)O)C(=O)N[C@@H](C(C)C)C(=O)N[C@H](C(=O)N[C@@H](Cc1ccc(O)cc1)C(=O)N[C@H](C(=O)NCC(=O)N[C@@H](CCCNC(=N)N)C(=O)O)C(C)C)CSSC[C@H](NC(=O)[C@H](CCC(N)=O)NC(=O)[C@@H](N)C(C)C)C(=O)N1CCC[C@H]1C(=O)N[C@@H](Cc1c[nH]cn1)C(=O)N[C@@H](Cc1ccccc1)C(=O)N2 [IGE132] (H-VQCPHFCYVGGHALCPDVCYVGR-OH; disulfide 3-19, 7-15) | +++
11 | CC(C)C[C@@H]1NC(=O)[C@H](C)NC(=O)[C@H](Cc2c[nH]cn2)NC(=O)CNC(=O)CNC(=O)[C@H](C(C)C)NC(=O)[C@H](Cc2ccc(O)cc2)NC(=O)[C@@H]2CSSC[C@H](NC1=O)C(=O)N[C@@H](C)C(=O)N[C@@H](CC(=O)O)C(=O)N[C@@H](C(C)C)C(=O)N[C@H](C(=O)N[C@@H](Cc1ccc(O)cc1)C(=O)N[C@H](C(=O)NCC(=O)N[C@@H](CCCNC(=N)N)C(=O)O)C(C)C)CSSC[C@H](NC(=O)[C@H](CCC(N)=O)NC(=O)[C@@H](N)C(C)C)C(=O)N1CCC[C@H]1C(=O)N[C@@H](Cc1c[nH]cn1)C(=O)N[C@@H](Cc1ccccc1)C(=O)N2 [IGE143] (H-VQCPHFCYVGGHALCADVCYVGR-OH; disulfide 3-19, 7-15 (inferred)) | +++
12 | CC(C)C[C@@H]1NC(=O)[C@H](CCC(=O)O)NC(=O)[C@H](Cc2ccc(O)cc2)NC(=O)[C@@H]2CSSC[C@H](NC(=O)[C@H](CC(C)C)NC(=O)[C@H](CCC(=O)O)NC(=O)[C@H](Cc3ccc(O)cc3)NC(=O)[C@H](CC(=O)O)NC1=O)C(=O)N1CCC[C@H]1C(=O)N[C@@H](CC(=O)O)C(=O)N[C@@H](C(C)C)C(=O)N[C@H](C(=O)N[C@@H](Cc1ccc(O)cc1)C(=O)N[C@H](C(=O)NCC(=O)N[C@@H](CCCNC(=N)N)C(=O)O)C(C)C)CSSC[C@H](NC(=O)[C@H](CCC(N)=O)NC(=O)[C@@H](N)C(C)C)C(=O)N1CCC[C@H]1C(=O)N[C@@H](Cc1c[nH]cn1)C(=O)N[C@@H](Cc1ccccc1)C(=O)N2 [IGE156] (H-VQCPHFCYELDYELCPDVCYVGR-OH; disulfide 3-19, 7-15 (inferred)) | +++

Biological target: T1, alpha subunit of the human FcεRI receptor (Homo sapiens, UniProt P12319)
T1 construct: expressed in transfected cells; host or cells: Chinese hamster ovary (CHO FcεRI+) cells
T1 sequence (P12319 26-257): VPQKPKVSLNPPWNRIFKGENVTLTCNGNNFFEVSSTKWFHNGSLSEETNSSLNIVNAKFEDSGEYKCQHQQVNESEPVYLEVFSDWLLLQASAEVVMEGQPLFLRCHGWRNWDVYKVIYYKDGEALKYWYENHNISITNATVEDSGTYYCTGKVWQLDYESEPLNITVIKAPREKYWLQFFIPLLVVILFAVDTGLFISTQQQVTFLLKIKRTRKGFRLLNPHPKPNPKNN
Assay: cell-based 125I-IgE binding inhibition assay on CHO FcεRI+ cells
Details: IGE037: initially; read-out: IC50
Description: . The following day the cells were rinsed three times with PBS and then once with F12/DMEM. Peptide stocks were reconstituted in 100 mM Hepes buffered water, pH 7.2, at a concentration of 5 mg/mL. Working concentrations of the peptide were diluted in assay buffer (see below). 75 ul, of a desired concentration of peptide was added to the top row of a separate 96 well microtiter plate and serially diluted 1:3 in 50 uL of the assay buffer (F12/DMEM, 1% BSA, 0.05% NaN3 and […] Hepes pH 7.2). Starting concentrations ranged from 50-500 uM. Next, 50 uL of the diluted peptide was transferred to the 96 microtiter well plate containing a monolayer of CHO FcεRI+ cells. After a 1 hour incubation at room temperature, 50 uL of ^125I-IgE (1.5 nM) was added to each well and incubated for an additional 45-60 minutes at 4° C. followed by 5 washes with 200 uL of assay buffer. Cells were solubilized with 200 uL of 1 N NaOH and transferred to a 96 microtiter tube for counting in a gamma counter to determine counts bound. The data were plotted using KaleidaGraph 3.0 and fitted using 4-parameter fits. IC50 values were determined for each peptide.
Six peptides based on selected clones from library #516 were synthesized and assayed for the ability to inhibit the binding of ^125I-IgE to a Chinese hamster ovary cell line expressing the alpha subunit of the IgE high affinity receptor, FcεRI. The peptides were synthesized as nine residue monomers and oxidized to allow the formation of a disulfide bridge resulting in a cyclic peptide. The size of each peptide was confirmed by mass spectrometry.

Row | Compound | IC50 [µM]
13 | CSCC[C@H](NC(=O)[C@@H]1CSSC[C@H](NC(=O)[C@H](CCCNC(=N)N)NC(=O)[C@@H]2CCCN2C(=O)[C@H](CC(C)C)NC(=O)[C@H](CC(N)=O)NC(C)=O)C(=O)N[C@@H]([C@@H](C)O)C(=O)N[C@@H](CCC(=O)O)C(=O)NCC(=O)N2CCC[C@H]2C(=O)N[C@@H](Cc2c[nH]c3ccccc23)C(=O)NCC(=O)N[C@@H](Cc2c[nH]c3ccccc23)C(=O)N[C@@H](C(C)C)C(=O)N1)C(=O)O [IGE063, Ac-NLPRCTEGPWGWVCM] (Ac-NLPRCTEGPWGWVCM-OH; disulfide 5-14) | ~1

Same assay, conditions: inhibition of labeled IgE-binding to CHO FcεRI+ cells; read-out: Mean IC50(uM) ± S.D.

Row | Compound | IC50 [µM]
14 | CSCC[C@H](NC(=O)[C@@H]1CSSC[C@H](NC(=O)[C@H](CCCNC(=N)N)NC(=O)[C@@H]2CCCN2C(=O)[C@H](CC(C)C)NC(=O)[C@H](CC(N)=O)NC(C)=O)C(=O)N[C@@H]([C@@H](C)O)C(=O)N[C@@H](CCC(=O)O)C(=O)NCC(=O)N2CCC[C@H]2C(=O)N[C@@H](Cc2c[nH]c3ccccc23)C(=O)NCC(=O)N[C@@H](Cc2c[nH]c3ccccc23)C(=O)N[C@@H](C(C)C)C(=O)N1)C(=O)O [IGE063, Ac-NLPRCTEGPWGWVCM] (Ac-NLPRCTEGPWGWVCM-OH; disulfide 5-14) | 1.8 ± 0.7
